Read-outs that look alike come from different tables or passages of the source. Numbered stars: 1 amine (or outer) side, 2 acyl side, 3 side chain; on linkers, the order of the positions; unused ones are H or OH. Bridge positions count the residues as written; N and C are the ends. Square brackets hold non-standard residues; d marks the D form. Side chains are listed from the residue outwards. Peptide text beside a SMILES is read from it. * marks the point of attachment. DOTA = O=C(O)CN1CCN(CC(=O)O)CCN(CC(=O)*)CCN(CC(=O)O)CC1; Phe(4-CN) = N#Cc1ccc(C[C@H](N)C(=O)O)cc1; Phe(4-Cl) = N[C@@H](Cc1ccc(Cl)cc1)C(=O)O; Pro(4,4-F2) = O=C(O)[C@@H]1CC(F)(F)CN1; Arg(Me) = CNC(=N)NCCC[C@H](N)C(=O)O; X1 = O=C(CC1CCN([*:1])CC1)[*:2]; Cit = NC(=O)NCCC[C@H](N)C(=O)O; Lys(Me) = CNCCCC[C@H](N)C(=O)O; Tle = CC(C)(C)[C@H](N)C(=O)O; 4Amb = NCc1ccc(C(=O)O)cc1; Nle = CCCC[C@H](N)C(=O)O; Aib = CC(C)(N)C(=O)O
Tests used:
[1] = biological target: T1, PSMA-expressing C4-2 cells (Homo sapiens, UniProt Q04609); assay: FACS binding assay (competition with 50 nM PSM-0183)
T1 construct: PSMA-expressing C4-2 cells (ATCC, Cat. No. CRL-3314) were cultured in RPMI-1640; host or cells: C4-2 cells
T1 sequence (Q04609 whole entry): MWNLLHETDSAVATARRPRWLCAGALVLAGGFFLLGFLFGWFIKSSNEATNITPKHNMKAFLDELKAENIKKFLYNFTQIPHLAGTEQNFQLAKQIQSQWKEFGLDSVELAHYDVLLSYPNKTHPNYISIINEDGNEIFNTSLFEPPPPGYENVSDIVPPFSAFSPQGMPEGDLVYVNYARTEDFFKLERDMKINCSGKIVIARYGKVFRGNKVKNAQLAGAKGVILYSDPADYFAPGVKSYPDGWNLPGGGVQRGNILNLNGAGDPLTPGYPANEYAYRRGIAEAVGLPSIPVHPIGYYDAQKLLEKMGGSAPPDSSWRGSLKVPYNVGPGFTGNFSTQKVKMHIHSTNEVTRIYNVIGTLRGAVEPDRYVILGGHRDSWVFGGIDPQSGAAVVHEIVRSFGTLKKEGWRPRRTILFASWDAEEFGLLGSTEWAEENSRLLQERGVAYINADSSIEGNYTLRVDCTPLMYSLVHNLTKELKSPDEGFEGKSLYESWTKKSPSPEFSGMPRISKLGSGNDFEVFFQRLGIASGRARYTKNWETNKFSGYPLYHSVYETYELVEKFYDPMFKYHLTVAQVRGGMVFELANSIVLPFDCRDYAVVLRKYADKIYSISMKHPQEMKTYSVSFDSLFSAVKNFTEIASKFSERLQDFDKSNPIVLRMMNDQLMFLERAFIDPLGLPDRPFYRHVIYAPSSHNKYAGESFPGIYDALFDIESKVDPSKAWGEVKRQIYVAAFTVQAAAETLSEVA
Protocol: In order to determine binding of compounds according to the present invention to PSMA-expressing cells, a FACS binding assay was established.
PSMA-expressing C4-2 cells (ATCC, Cat. No. CRL-3314) were cultured in RPMI-1640 (Pan Biotech, Cat. No. P04-18050) including 10% fetal calf serum (Biochrom) and 100 U/ml penicillin and 100 μg/mL streptomycin (Sigma, Cat. No. P0781). Cells were detached with Accutase (Biolegend, Cat. No. BLD-423201) and washed in FACS buffer (PBS (Sigma, Cat. No. D8537) including 1% fetal calf serum). Cells were diluted in FACS buffer to a final concentration of 500,000 cells per mL. 200 μL of the cell suspension were transferred to a u-shaped non-binding 96-well plate (Greiner Bio-One, Cat. No. 650901) and cells were washed in ice-cold FACS buffer.
For IC50 determination, C4-2 cells were incubated with 50 nM PSM-0183 (Ac-Thr-Aib-Phe[Cys-Lys-Arg-Aib-Asn-Cys]-Tle-Thr-Asp-Ttds-Ttds-AF488N3K-NH2) in the presence of increasing concentrations of test compounds at 4° C. for 1 hour. After two wash steps with ice-cold FACS buffer, cells were analyzed in an Attune NxT flow cytometer. Median fluorescence intensities (MFI) of the FITC/AF488-channel were calculated by Attune NxT software. MFI values were plotted against peptide concentration and four parameter logistic (4PL) curve fitting and IC50/pIC50 calculations were performed using ActivityBase software (IDBS).

[2] = biological target: T2, Fc-fusion protein of human PSMA (hPSMA-Fc) (Homo sapiens, UniProt Q04609); assay: Surface plasmon resonance assay (Biacore T200, single cycle kinetic); format: binding
T2 construct: purchased Acro Biosystems PSA-H5264
T2 sequence (Q04609 44-750 limits assumed): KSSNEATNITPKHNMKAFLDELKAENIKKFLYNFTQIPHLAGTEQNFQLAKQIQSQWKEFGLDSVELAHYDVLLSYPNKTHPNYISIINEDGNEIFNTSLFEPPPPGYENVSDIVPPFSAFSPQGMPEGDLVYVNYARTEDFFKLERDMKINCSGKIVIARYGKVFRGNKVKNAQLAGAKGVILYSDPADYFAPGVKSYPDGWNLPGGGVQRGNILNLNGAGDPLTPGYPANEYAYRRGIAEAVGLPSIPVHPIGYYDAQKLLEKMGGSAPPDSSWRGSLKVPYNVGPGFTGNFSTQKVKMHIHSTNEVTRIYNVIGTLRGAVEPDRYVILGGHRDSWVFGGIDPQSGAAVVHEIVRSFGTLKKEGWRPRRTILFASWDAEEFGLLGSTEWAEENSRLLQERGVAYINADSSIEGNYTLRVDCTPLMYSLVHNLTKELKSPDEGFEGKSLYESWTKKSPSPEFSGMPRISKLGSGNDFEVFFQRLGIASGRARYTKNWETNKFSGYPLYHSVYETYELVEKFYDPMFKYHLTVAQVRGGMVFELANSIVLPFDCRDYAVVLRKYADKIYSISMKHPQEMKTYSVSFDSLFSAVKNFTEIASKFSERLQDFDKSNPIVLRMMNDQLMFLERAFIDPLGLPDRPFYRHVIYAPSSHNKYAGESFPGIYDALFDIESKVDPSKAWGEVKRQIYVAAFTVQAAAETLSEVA
Protocol: Surface plasmon resonance (SPR) studies were performed using a Biacore™ T200 SPR system. Briefly, polarized light is directed towards a gold-labeled sensor surface, and minimum intensity reflected light is detected. The angle of reflected light changes as molecules bind and dissociate.
Fc-fusion protein of human PSMA (hPSMA-Fc, Acro Biosystems, Cat #PSA-H5264) was captured on a Fc-capture chip (Biacore™ CM5 sensor chip coated with ˜300 RU of an Fc-binding peptide). hPSMA-Fc was diluted in Running Buffer (HBST, 0.1% DMSO) to a final concentration of 100 nM and then flushed over the Fc-capture chip to immobilized ˜1000 RUs.
Stock solutions of test compounds were prepared by dissolving each compound in DMSO. DMSO stock solution were diluted 1:1000 in Running Buffer without DMSO. Further sequential dilutions were made with Running Buffer containing 0.1% DMSO. SPR binding analyses were performed in Single Cycle Kinetic (SCK) mode at 25° C. Flow cell coated with the Fc-binding peptide only served as reference flowcell. After each SCK run, hPSMA-Fc was removed with 10 mM glycine buffer, pH 1.5.
In between every three SCK measurements, a blank run with Running Buffer instead of test compound was included to correct for baseline drifts (double blanking method).
Table 5 describes the protocol steps for Fc-fusion target capturing and assessment of the binding kinetics.
For each test compound, SPR raw data in the form of resonance units (RU) were plotted as sensorgrams using the Biacore™ T200 control software. The signal from the blank sensorgram was subtracted from that of the test compound sensorgram (blank corrected). The blank corrected sensorgram was corrected for baseline drift by subtracting the sensorgram of a SCK run without the test compound (running buffer only). The dissociation constant (KD) was calculated from Blank-normalized SPR data using the 1:1 Langmuir binding model from the Biacore™ Insight Evaluation software. The pKD value (negative decadic logarithm of dissociation constant) was calculated using Microsoft Excel.

[3] = pIC50 category of FACS binding, C4-2 cells, read-out: pIC50 [C4-2] CAT (converted)
[4] = pKD category for PSMA SPR activity assay, hPSMA-Fc, 25° C., read-out: pKD CAT (converted)
[5] = FACS binding, PSMA-expressing C4-2 cells, pIC50 category, read-out: pIC50 [C4-2] CAT (converted)
[6] = PSMA SPR assay, hPSMA-Fc, 25° C., pKD category, read-out: pKD CAT (converted)
[7] = FACS binding, C4-2 cells, category, read-out: pIC50 [C4-2] CAT (converted)
[8] = PSMA SPR assay, category, read-out: pKD CAT (converted)

| Compound | IC50 [1, 3] [nM] | Kd [2, 4] [nM] | IC50 [1, 5] [nM] | Kd [2, 6] [nM] | other results |
| --- | --- | --- | --- | --- | --- |
| CC(=O)N[C@H](C(=O)NC(C)(C)C(=O)N[C@@H](Cc1ccccc1)C(=O)N[C@H]1CSSC[C@@H](C(=O)N[C@H](C(=O)N[C@@H](CC(C)C)C(N)=O)C(C)(C)C)NC(=O)[C@H](CC(N)=O)NC(=O)C(C)(C)NC(=O)[C@H](CCCNC(=N)N)NC(=O)[C@H](CCCCN)NC1=O)[C@@H](C)O [PSM-0453, Ac-Thr-Aib-Phe-[Cys-Lys-Arg-Aib-Asn-Cys]-Tle-Leu-NH2] (Ac-T[Aib]FCKR[Aib]NC[Tle]L-NH2; disulfide 4-9) | < 200 | < 12.6 | – | – | – |
| CC(=O)N[C@H](C(=O)NC(C)(C)C(=O)N[C@@H](Cc1ccccc1)C(=O)N[C@H]1CSSC[C@@H](C(=O)N[C@H](C(=O)O)C(C)(C)C)NC(=O)[C@H](CC(N)=O)NC(=O)C(C)(C)NC(=O)[C@H](CCCNC(=N)N)NC(=O)[C@H](CCCCN)NC1=O)[C@@H](C)O [PSM-0300, Ac-Thr-Aib-Phe-[Cys-Lys-Arg-Aib-Asn-Cys]-Tle-OH] (Ac-T[Aib]FCKR[Aib]NC[Tle]-OH; disulfide 4-9) | – | – | < 200 | < 12.6 | – |
| CC(=O)N[C@H](C(=O)NC(C)(C)C(=O)N[C@@H](Cc1ccccc1)C(=O)N[C@H]1CSSC[C@@H](C(=O)N[C@H](C(=O)N[C@H](C(N)=O)[C@@H](C)O)C(C)(C)C)NC(=O)[C@H](CC(N)=O)NC(=O)[C@H](C)NC(=O)[C@H](CCCNC(=N)N)NC(=O)[C@H](CCCCN)NC1=O)[C@@H](C)O [PSM-0552, Ac-Thr-Aib-Phe-[Cys-Lys-Arg-Ala-Asn-Cys]-Tle-Thr-NH2] (Ac-T[Aib]FCKRANC[Tle]T-NH2; disulfide 4-9) | < 200 | < 12.6 | – | – | – |
| CC(=O)N[C@H](C(=O)NC(C)(C)C(=O)N[C@@H](Cc1ccccc1)C(=O)N[C@H]1CSSC[C@@H](C(=O)N[C@H](C(=O)N[C@H](C(=O)N[C@@H](CC(=O)O)C(N)=O)[C@@H](C)O)C(C)(C)C)NC(=O)[C@H](CC(N)=O)NC(=O)C(C)(C)NC(=O)[C@H](CCCNC(N)=O)NC(=O)[C@H](CCCCN)NC1=O)[C@@H](C)O [PSM-0280, Ac-Thr-Aib-Phe-[Cys-Lys-Cit-Aib-Asn-Cys]-Tle-Thr-Asp-NH2] (Ac-T[Aib]FCK[Cit][Aib]NC[Tle]TD-NH2; disulfide 4-9) | – | – | < 200 | < 12.6 | – |
| CCCC[C@H](NC(=O)[C@@H]1CSSC[C@H](NC(=O)[C@H](Cc2ccccc2)NC(=O)[C@H](C)NC(=O)[C@@H](NC(C)=O)[C@@H](C)O)C(=O)N[C@@H](CCCCN)C(=O)N2CCC[C@H]2C(=O)N[C@@H](C)C(=O)N[C@@H](CC(N)=O)C(=O)N1)C(=O)N[C@H](C(=O)N[C@@H](CC(=O)O)C(N)=O)[C@@H](C)O [PSM-0564, Ac-Thr-Als-Phe-[Cys-Lys-Pro-Ala-Asn-Cys]-Nle-Thr-Asp-NH2] (Ac-TAFCKPANC[Nle]TD-NH2; disulfide 4-9) | – | – | – | – | IC50 [1, 7]: > 3160 nM; Kd [2, 8]: > 501 nM |
| CC(=O)N[C@H](C(=O)NC(C)(C)C(=O)N[C@@H](Cc1ccccc1)C(=O)N[C@H]1CSSC[C@@H](C(=O)N[C@H](C(=O)N[C@H](C(=O)N[C@@H](CC(=O)O)C(N)=O)[C@@H](C)O)C(C)(C)C)NC(=O)[C@H](CC(N)=O)NC(=O)[C@@H]2CC(F)(F)CN2C(=O)[C@H](CCCNC(=N)N)NC(=O)[C@H](CCCCN)NC1=O)[C@@H](C)O [PSM-0217, Ac-Thr-Aib-Phe-[Cys-Lys-Arg-Dfp-Asn-Cys]-Tle-Thr-Asp-NH2] (Ac-T[Aib]FCKR[Pro(4,4-F2)]NC[Tle]TD-NH2; disulfide 4-9) | – | – | – | – | IC50 [1]: < 200 nM; Kd [2]: 12.6 to 126 nM |
| CNCCCC[C@@H]1NC(=O)[C@@H](NC(=O)[C@H](Cc2ccc(Cl)cc2)NC(=O)C(C)(C)NC(=O)[C@@H](NC(=O)CC2CCN(C(=O)CN3CCN(CC(=O)O)CCN(CC(=O)O)CCN(CC(=O)O)CC3)CC2)[C@@H](C)O)CSSC[C@@H](C(=O)O)NC(=O)[C@H](CC(N)=O)NC(=O)C(C)(C)NC(=O)[C@H](CCCNC(=N)NC)NC1=O [PSM-0594, DOTA-Cmp-Thr-Aib-Pcf-[Cys-Lys(Me)-Arg(Me)-Aib-Asn-Cys]-OH] ({DOTA}-[X1]T[Aib][Phe(4-Cl)]C[Lys(Me)][Arg(Me)][Aib]NC-OH; disulfide 5-10) | – | – | – | – | IC50 [1, 7]: 1260 to 3160 nM; Kd [2, 8]: > 501 nM |
| CC(=O)N[C@H](C(=O)NC(C)(C)C(=O)N[C@@H](Cc1ccccc1)C(=O)N[C@H]1CSSC[C@@H](C(=O)N[C@H](C(=O)N[C@@H](Cc2c[nH]c3ccccc23)C(N)=O)C(C)(C)C)NC(=O)[C@H](CC(N)=O)NC(=O)C(C)(C)NC(=O)[C@H](CCCNC(=N)N)NC(=O)[C@H](CCCCN)NC1=O)[C@@H](C)O [PSM-0376, Ac-Thr-Aib-Phe-[Cys-Lys-Arg-Aib-Asn-Cys]-Tle-Trp-NH2] (Ac-T[Aib]FCKR[Aib]NC[Tle]W-NH2; disulfide 4-9) | < 200 | < 12.6 | – | – | – |
| CC(=O)N[C@H](C(=O)NC(C)(C)C(=O)N[C@@H](Cc1ccccc1)C(=O)N[C@H]1CSSC[C@@H](C(=O)N[C@H](C(=O)N[C@H](C(N)=O)[C@@H](C)O)C(C)(C)C)NC(=O)[C@H](CC(N)=O)NC(=O)[C@H](CCCCNC(=O)c2ccc(CNC(=O)CN3CCN(CC(=O)O)CCN(CC(=O)O)CCN(CC(=O)O)CC3)cc2)NC(=O)[C@H](CCCNC(=N)N)NC(=O)[C@H](CCCCN)NC1=O)[C@@H](C)O [PSM-0419, Ac-Thr-Aib-Phe-[Cys-Lys-Arg-Lys(DOTA-Pamb)-Asn-Cys]-Tle-Thr-NH2] (Ac-T[Aib]FCKRK([4Amb-DOTA])NC[Tle]T-NH2; disulfide 4-9) | < 200 | < 12.6 | – | – | – |
| CC(=O)N[C@H](C(=O)NC(C)(C)C(=O)N[C@@H](Cc1ccccc1)C(=O)N[C@H]1CSSC[C@@H](C(=O)N[C@H](C(=O)N[C@H](C(N)=O)[C@@H](C)O)C(C)(C)C)NC(=O)[C@H](Cc2ccccc2)NC(=O)C(C)(C)NC(=O)[C@H](CCCNC(=N)N)NC(=O)[C@H](CCCCN)NC1=O)[C@@H](C)O [PSM-0541, Ac-Thr-Aib-Phe-[Cys-Lys-Arg-Aib-Phe-Cys]-Tle-NH2] (Ac-T[Aib]FCKR[Aib]FC[Tle]T-NH2; disulfide 4-9) | < 200 | < 12.6 | – | – | – |
| CC(=O)N[C@H](C(=O)NC(C)(C)C(=O)N[C@@H](Cc1ccc(C#N)cc1)C(=O)N[C@H]1CSSC[C@@H](C(=O)N[C@H](C(=O)N[C@H](C(N)=O)[C@@H](C)O)C(C)(C)C)NC(=O)[C@H](CC(N)=O)NC(=O)C(C)(C)NC(=O)[C@H](CCCNC(=N)N)NC(=O)[C@H](CCCCN)NC1=O)[C@@H](C)O [PSM-0278, Ac-Thr-Aib-Pnf-[Cys-Lys-Arg-Aib-Asn-Cys]-Tle-Thr-NH2] (Ac-T[Aib][Phe(4-CN)]CKR[Aib]NC[Tle]T-NH2; disulfide 4-9) | – | – | < 200 | < 12.6 | – |
| CC(=O)N[C@H](C(=O)NC(C)(C)C(=O)N[C@@H](Cc1ccccc1)C(=O)N[C@H]1CSSC[C@@H](C(=O)N[C@H](C(=O)N[C@H](C(=O)N[C@@H](CC(=O)O)C(N)=O)[C@@H](C)O)C(C)(C)C)NC(=O)[C@H](CC(N)=O)NC(=O)C(C)(C)NC(=O)[C@H](CCC(N)=O)NC(=O)[C@H](CCCCN)NC1=O)[C@@H](C)O [PSM-0334, Ac-Thr-Aib-Phe-[Cys-Lys-Gln-Aib-Asn-Cys]-Tle-Thr-Asp-NH2] (Ac-T[Aib]FCKQ[Aib]NC[Tle]TD-NH2; disulfide 4-9) | – | – | < 200 | 12.6 to 126 | – |

From US20260083865A1, “PROSTATE SPECIFIC MEMBRANE ANTIGEN (PSMA) LIGANDS AND USE THEREOF” (priority 2022, published 2026)
